pEC50: −log10 of the molar value. Starred links: 1 amine or outer side, 2 acyl side, 3 side chain; linkers in the order of their positions; H or OH if unused. Non-standard residues stand in square brackets, D forms with d. Residues, ends and D or L forms follow the SMILES beside them. Groups on a side chain read outwards from the residue. *: point of attachment. Dip = N[C@H](C(=O)O)C(c1ccccc1)c1ccccc1; γGlu = O=C(O)[C@H](CCC(=O)[*:2])N[*:1]; Stearoyl = CCCCCCCCCCCCCCCCCC(=O)*; Palmitoyl = CCCCCCCCCCCCCCCC(=O)*; αMeF = C[C@](N)(Cc1ccccc1)C(=O)O; PEG4 = NCCOCCOCCOCCOCCC(=O)O; PEG2 = NCCOCCOCCC(=O)O; Aib = CC(C)(N)C(=O)O
Assays:
[1] = biological target: human glucagon receptor (hGCGR) (Homo sapiens, UniProt P47871); experiment: cAMP production (HTRF) in CHO cells expressing hGCGR; assay type: cell-based; design: expressed in transfected cells; conditions: Table 6, peptides modified at position 17; cAMP in CHO hGCGR cells; geometric mean; read-out: hGluc-R EC50
Chain of human glucagon receptor (hGCGR) (P47871 26-477): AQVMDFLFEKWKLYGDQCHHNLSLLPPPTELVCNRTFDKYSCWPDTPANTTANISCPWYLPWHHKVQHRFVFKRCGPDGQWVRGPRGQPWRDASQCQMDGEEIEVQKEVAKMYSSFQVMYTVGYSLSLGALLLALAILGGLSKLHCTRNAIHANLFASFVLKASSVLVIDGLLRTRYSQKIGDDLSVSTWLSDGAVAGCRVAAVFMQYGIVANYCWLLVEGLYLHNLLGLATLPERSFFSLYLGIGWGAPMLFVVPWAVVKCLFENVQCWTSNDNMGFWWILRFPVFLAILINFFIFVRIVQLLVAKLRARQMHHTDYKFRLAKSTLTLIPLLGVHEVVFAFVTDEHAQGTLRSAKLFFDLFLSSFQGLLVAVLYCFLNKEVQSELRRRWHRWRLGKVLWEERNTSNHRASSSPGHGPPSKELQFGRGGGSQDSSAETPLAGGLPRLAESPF
How it was run: (§1)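 Read-out: HTRF cAMP (anti-cAMP cryptate donor, cAMP-d2 acceptor in conjugate/lysis buffer), converted to % Delta F and fitted by 4-parameter logistic for EC50. Cell densities were 1×10^5 cells/mL (hGLP-1R) or 2×10^5 cells/mL (hGCGR). Stimulation lasted 30 min at room temperature.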

[2] = biological target: human GLP-1 receptor (hGLP-1R) (Homo sapiens, UniProt P43220); experiment: cAMP production (HTRF) in CHO cells expressing hGLP-1R; assay type: cell-based; design: expressed in transfected cells; conditions: for pEC50: Table 6, peptides modified at position 17, cAMP in CHO hGLP-1R cells, geometric mean, read-out: hGLP-1R EC50; for % Relative Potency Ratio: Table 6, % GLP-1R activity relative to GLP-1 / % GlucR activity relative to glucagon
Chain of human GLP-1 receptor (hGLP-1R) (P43220 24-463): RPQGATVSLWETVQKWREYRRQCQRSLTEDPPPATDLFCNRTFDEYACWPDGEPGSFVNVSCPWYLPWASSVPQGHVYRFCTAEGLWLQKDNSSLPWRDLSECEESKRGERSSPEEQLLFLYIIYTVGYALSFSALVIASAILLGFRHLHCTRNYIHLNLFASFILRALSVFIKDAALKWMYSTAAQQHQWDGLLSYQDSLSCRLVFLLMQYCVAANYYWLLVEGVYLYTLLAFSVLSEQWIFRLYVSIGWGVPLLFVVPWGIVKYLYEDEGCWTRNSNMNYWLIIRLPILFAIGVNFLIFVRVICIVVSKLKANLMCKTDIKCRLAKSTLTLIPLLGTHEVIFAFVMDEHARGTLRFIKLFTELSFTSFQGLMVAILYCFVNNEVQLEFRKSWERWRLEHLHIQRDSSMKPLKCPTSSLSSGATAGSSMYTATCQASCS
How it was run: as §1

pEC50 [1]	pEC50 [2]	% Relative Potency Ratio [2]	SMILES
10.68	11.29	8.1	CCCCCCCCCCCCCCCCCC(=O)NCCOCCOCCC(=O)N[C@@H](CCC(=O)NCCOCCOCCC(=O)N[C@@H](CCC(=O)NCCCC[C@H](NC(=O)[C@H](CO)NC(=O)[C@H](CC(=O)O)NC(=O)[C@H](CC(C)C)NC(=O)[C@@H](NC(=O)[C@H](CCCCN)NC(=O)[C@H](CO)NC(=O)[C@@H](NC(=O)[C@H](CC(=O)O)NC(=O)[C@H](CO)NC(=O)[C@@H](NC(=O)[C@](C)(Cc1ccccc1)NC(=O)[C@H](CO)NC(=O)CNC(=O)[C@H](CCC(N)=O)NC(=O)[C@H](CO)NC(=O)[C@@H](N)Cc1c[nH]cn1)[C@@H](C)O)C(C)C)C(c1ccccc1)c1ccccc1)C(=O)N[C@@H](C)C(=O)N[C@@H](C)C(=O)N[C@@H](CCC(N)=O)C(=O)N[C@@H](CC(=O)O)C(=O)N[C@@](C)(Cc1ccccc1)C(=O)N[C@H](C(=O)N[C@@H](CCC(=O)O)C(=O)NC(C)(C)C(=O)N[C@H](C(=O)N[C@H](C(=O)N[C@@H](CC(N)=O)C(=O)N[C@H](C(N)=O)[C@@H](C)O)[C@@H](C)CC)[C@@H](C)CC)C(C)C)C(=O)O)C(=O)O [Peptide 60] (H-HSQGS[αMeF]TSDVSK[Dip]LDSK([γGlu-PEG2-γGlu-PEG2-Stearoyl])AAQD[αMeF]VE[Aib]IINT-NH2; N-terminus assumed)
11.02	11.38	4.6	CCCCCCCCCCCCCCCCCC(=O)N[C@@H](CCC(=O)NCCOCCOCCC(=O)N[C@@H](CCC(=O)NCCOCCOCCC(=O)NCCCC[C@H](NC(=O)[C@H](CO)NC(=O)[C@H](CC(=O)O)NC(=O)[C@H](CC(C)C)NC(=O)[C@@H](NC(=O)[C@H](CCCCN)NC(=O)[C@H](CO)NC(=O)[C@@H](NC(=O)[C@H](CC(=O)O)NC(=O)[C@H](CO)NC(=O)[C@@H](NC(=O)[C@](C)(Cc1ccccc1)NC(=O)[C@H](CO)NC(=O)CNC(=O)[C@H](CCC(N)=O)NC(=O)[C@H](CO)NC(=O)[C@@H](N)Cc1c[nH]cn1)[C@@H](C)O)C(C)C)C(c1ccccc1)c1ccccc1)C(=O)N[C@@H](C)C(=O)N[C@@H](C)C(=O)N[C@@H](CCC(N)=O)C(=O)N[C@@H](CC(=O)O)C(=O)N[C@@](C)(Cc1ccccc1)C(=O)N[C@H](C(=O)N[C@@H](CCC(=O)O)C(=O)NC(C)(C)C(=O)N[C@H](C(=O)N[C@H](C(=O)N[C@@H](CC(N)=O)C(=O)N[C@H](C(N)=O)[C@@H](C)O)[C@@H](C)CC)[C@@H](C)CC)C(C)C)C(=O)O)C(=O)O [Peptide 61] (H-HSQGS[αMeF]TSDVSK[Dip]LDSK([PEG2-γGlu-PEG2-γGlu-Stearoyl])AAQD[αMeF]VE[Aib]IINT-NH2; N-terminus assumed)
11.51	11.59	2.4	CCCCCCCCCCCCCCCC(=O)N[C@@H](CCC(=O)N[C@@H](CCC(=O)NCCOCCOCCC(=O)NCCOCCOCCC(=O)NCCCC[C@H](NC(=O)[C@H](CO)NC(=O)[C@H](CC(=O)O)NC(=O)[C@H](CC(C)C)NC(=O)[C@@H](NC(=O)[C@H](CCCCN)NC(=O)[C@H](CO)NC(=O)[C@@H](NC(=O)[C@H](CC(=O)O)NC(=O)[C@H](CO)NC(=O)[C@@H](NC(=O)[C@](C)(Cc1ccccc1)NC(=O)[C@H](CO)NC(=O)CNC(=O)[C@H](CCC(N)=O)NC(=O)[C@H](CO)NC(=O)[C@@H](N)Cc1c[nH]cn1)[C@@H](C)O)C(C)C)C(c1ccccc1)c1ccccc1)C(=O)N[C@@H](C)C(=O)N[C@@H](C)C(=O)N[C@@H](CCC(N)=O)C(=O)N[C@@H](CC(=O)O)C(=O)N[C@@](C)(Cc1ccccc1)C(=O)N[C@H](C(=O)N[C@@H](CCC(=O)O)C(=O)NC(C)(C)C(=O)N[C@H](C(=O)N[C@H](C(=O)N[C@@H](CC(N)=O)C(=O)N[C@H](C(N)=O)[C@@H](C)O)[C@@H](C)CC)[C@@H](C)CC)C(C)C)C(=O)O)C(=O)O [Peptide 64] (H-HSQGS[αMeF]TSDVSK[Dip]LDSK([PEG2-PEG2-γGlu-γGlu-Palmitoyl])AAQD[αMeF]VE[Aib]IINT-NH2; N-terminus assumed)
11.19	11.82	8.3	CCCCCCCCCCCCCCCCCC(=O)N[C@@H](CCC(=O)N[C@@H](CCC(=O)NCCOCCOCCC(=O)NCCOCCOCCC(=O)NCCCC[C@H](NC(=O)[C@H](CO)NC(=O)[C@H](CC(=O)O)NC(=O)[C@H](CC(C)C)NC(=O)[C@@H](NC(=O)[C@H](CCCCN)NC(=O)[C@H](CO)NC(=O)[C@@H](NC(=O)[C@H](CC(=O)O)NC(=O)[C@H](CO)NC(=O)[C@@H](NC(=O)[C@](C)(Cc1ccccc1)NC(=O)[C@H](CO)NC(=O)CNC(=O)[C@H](CCC(N)=O)NC(=O)C(C)(C)NC(=O)[C@@H](N)Cc1c[nH]cn1)[C@@H](C)O)C(C)C)C(c1ccccc1)c1ccccc1)C(=O)N[C@@H](C)C(=O)N[C@@H](C)C(=O)N[C@@H](CCC(N)=O)C(=O)N[C@@H](CC(=O)O)C(=O)N[C@@](C)(Cc1ccccc1)C(=O)N[C@H](C(=O)N[C@@H](CCC(N)=O)C(=O)NC(C)(C)C(=O)N[C@H](C(=O)N[C@@H](C)C(=O)N[C@@H](CC(N)=O)C(N)=O)[C@@H](C)CC)C(C)C)C(=O)O)C(=O)O [Peptide 66] (H-H[Aib]QGS[αMeF]TSDVSK[Dip]LDSK([PEG2-PEG2-γGlu-γGlu-Stearoyl])AAQD[αMeF]VQ[Aib]IAN-NH2; N-terminus assumed)
11.02	11.61	7.7	CCCCCCCCCCCCCCCC(=O)N[C@@H](CCC(=O)NCCOCCOCCC(=O)NCCOCCOCCC(=O)NCCCC[C@H](NC(=O)[C@H](CO)NC(=O)[C@H](CC(=O)O)NC(=O)[C@H](CC(C)C)NC(=O)[C@@H](NC(=O)[C@H](CCCCN)NC(=O)[C@H](CO)NC(=O)[C@@H](NC(=O)[C@H](CC(=O)O)NC(=O)[C@H](CO)NC(=O)[C@@H](NC(=O)[C@](C)(Cc1ccccc1)NC(=O)[C@H](CO)NC(=O)CNC(=O)[C@H](CCC(N)=O)NC(=O)C(C)(C)NC(=O)[C@@H](N)Cc1c[nH]cn1)[C@@H](C)O)C(C)C)C(c1ccccc1)c1ccccc1)C(=O)N[C@@H](C)C(=O)N[C@@H](C)C(=O)N[C@@H](CCC(N)=O)C(=O)N[C@@H](CC(=O)O)C(=O)N[C@@](C)(Cc1ccccc1)C(=O)N[C@H](C(=O)N[C@@H](CCC(N)=O)C(=O)NC(C)(C)C(=O)N[C@H](C(=O)N[C@@H](C)C(=O)N[C@@H](CC(N)=O)C(N)=O)[C@@H](C)CC)C(C)C)C(=O)O [Peptide 67] (H-H[Aib]QGS[αMeF]TSDVSK[Dip]LDSK([PEG2-PEG2-γGlu-Palmitoyl])AAQD[αMeF]VQ[Aib]IAN-NH2; N-terminus assumed)
10.51	11.81	39.4	CCCCCCCCCCCCCCCCCC(=O)N[C@@H](CCC(=O)N[C@@H](CCC(=O)NCCOCCOCCOCCOCCC(=O)NCCCC[C@H](NC(=O)[C@H](CO)NC(=O)[C@H](CC(=O)O)NC(=O)[C@H](CC(C)C)NC(=O)[C@](C)(Cc1ccccc1)NC(=O)[C@H](CCCCN)NC(=O)[C@H](CO)NC(=O)[C@@H](NC(=O)[C@H](CC(=O)O)NC(=O)[C@H](CO)NC(=O)[C@@H](NC(=O)[C@](C)(Cc1ccccc1)NC(=O)[C@H](CO)NC(=O)CNC(=O)[C@H](CCC(N)=O)NC(=O)C(C)(C)NC(=O)[C@@H](N)Cc1c[nH]cn1)[C@@H](C)O)C(C)C)C(=O)N[C@@H](CCCNC(=N)N)C(=O)N[C@@H](C)C(=O)N[C@@H](CCC(N)=O)C(=O)N[C@@H](CC(=O)O)C(=O)N[C@@](C)(Cc1ccccc1)C(=O)N[C@H](C(=O)N[C@@H](CCC(=O)O)C(=O)NC(C)(C)C(=O)N[C@@H](CC(C)C)C(=O)N[C@@H](CCC(=O)O)C(=O)N[C@@H](C)C(=O)NCC(=O)NCC(N)=O)C(C)C)C(=O)O)C(=O)O [Peptide 70] (H-H[Aib]QGS[αMeF]TSDVSK[αMeF]LDSK([PEG4-γGlu-γGlu-Stearoyl])RAQD[αMeF]VE[Aib]LEAGG-NH2)

— patent US20250353891A1 (MEDIMMUNE LIMITED, priority 2022, published 2025)
